From a melting point compilation (Tetko et al.; mined from patent text by program, amines drawn as free bases though some values may be those of a salt)
Residues, ends and D or L forms follow the SMILES beside them. *: point of attachment. Piv = CC(C)(C)C(=O)*

| melting point | SMILES |
| --- | --- |
| 242 to 245 °C | CN(C)c1ccc(-c2cc(=O)c3ccc(O)c(O)c3o2)cc1 |
| 183 to 184 °C | COCc1nnc(-c2cccnc2)n1-c1c(Cl)c(C)cc2nc(OC)c(OC)nc12 |
| 130 to 131 °C | CCN(C(=O)OC)c1cn2cc(Sc3ccccc3)ccc2n1 |
| 305 to 308 °C | CC(=O)c1ccc2c(c1)NC(NC(C)C)=NS2(=O)=O |
| 72 to 76 °C | O=C1c2ccccc2C(=O)N1CCCCCCN1CCC(C2(c3ccc(F)cc3)OCCO2)CC1 |
| 263 to 265 °C | CC(C)C(NS(=O)(=O)c1ccc(-c2ccc(NC(=O)c3cc4cc(Br)ccc4o3)cc2)cc1)C(=O)O (stereo unspecified) |
| 219 to 220 °C | COC(=O)c1cc(C(=O)N(C)C)c2cc(Cc3ccc(F)cc3)cnc2c1O |
| 85 to 100 °C | CC(C)(C)OC(=O)CC(NC(=O)C1CCCN2C(=O)CCC(NS(C)(=O)=O)C(=O)N12)C(=O)COC(=O)c1ccccc1Oc1ccccc1 (stereo unspecified) |
| 73 to 74 °C | COC(=O)c1cc(OCc2ccccc2)nn1C(C)C |
| 137 to 138 °C | O=C(/C=C/c1cccc(Cl)c1)N1CCCC1 |
| 70 to 72 °C | CC(C)(C)[Si](OCC[C@H](O)CO)(c1ccccc1)c1ccccc1 |
| 280 to 282 °C | COc1cc2c(O)c3c(c(-c4ccc5c(c4)OCO5)c2cc1OC)C(=O)OC3 |
| 232 to 235 °C | CC(=O)On1cc(-c2ccccc2)c(=O)c(-c2cccc(C(F)(F)F)c2)c1 |
| 110 to 111 °C | COC(=O)c1cc(Cl)cc([N+](=O)[O-])c1N |
| 149 to 151 °C | CN(C)C=C(C#N)C(=O)c1cc(F)c(F)c(F)c1F |
| 158 to 160 °C | COC(=O)C(O)=CC(=O)c1cn(Cc2ccccc2F)c(=O)n(Cc2ccccc2F)c1=O |
| 140 to 141 °C | CC(C)[C@H](N=Cc1cccc(-c2ccccc2)c1O)C(=O)O |
| 94 to 96 °C | CCNC(=O)[C@@H]1CCCN1C(=O)[C@H](C)NC(=O)C(C)(C)C (Piv-Ala-Pro-NHEt) |
| 90 °C | CCCCCCCCCCCCCCOc1ccc(C(=O)Cl)cc1Cl |
| 119 to 123 °C | CCCCC1(CCCC)CS(=O)(=O)c2ccc(N(C)C)cc2[C@@H](c2ccc(OCCCCCSc3nnnn3CC(=O)O)cc2)[C@H]1O |
| 118 to 127 °C | CCc1cn(C2CC(OC)C(CO)O2)c(=O)[nH]c1=O (stereo unspecified) |
| 38 to 41 °C | COc1ccc(OC(CCCN2CC3CCC(C2)N3C(=O)OC(C)(C)C)c2ccc(C#N)cc2)cc1OC (stereo unspecified) |
| 214 to 216 °C | O=C(c1nc(-c2ccc(F)cc2)c(-c2ccc(F)cc2)[nH]1)C(F)(F)F |
| 217 to 219 °C | Cc1ccc(-c2cccc(NC(=O)Nc3cccc4c3CC(O)CC4)c2)cc1 (stereo unspecified) |

| melting point | SMILES |
| --- | --- |
| 144 to 145 °C | O=C(O)CN1CC(NC(=O)Cc2ccccc2)C1=O (stereo unspecified) |
| 132 to 135 °C | CN(Cc1cc2c(=O)c(C(=O)NCc3ccc(Cl)cc3)cn(C)c2s1)CC(O)c1cccnc1 (single isomer, unassigned; (+)) |
| 139 to 141 °C | CCC(C)C(NC(=O)OC)C(=O)NN(Cc1ccc(-c2cncs2)cc1)CC(O)C(Cc1ccccc1)NC(=O)C(NC(=O)OC)C(C)(C)C (stereo unspecified) |
| 106 to 109 °C | CCCc1ccc(C(=O)O)cc1[N+](=O)[O-] |
| 137 to 139 °C | O=C(CCCN1CCN(c2ccc(CO)c(Cl)c2)CC1)c1ccc(Cl)cc1 |
| 158 to 160 °C | COC(=O)C1CCc2sc3ccccc3c2C1=O (stereo unspecified) |
| 177 °C | CC(C)c1cccc2c1C(=O)NS2(=O)=O |
| 181 to 187 °C | Nc1c(NCc2ccccc2F)ccnc1Cl |
| 176 to 179 °C | Cc1ccc(-c2ccc(C(=O)Nc3cc4ncc(CN5CCCC5)cc4cc3C)c(F)c2)cc1 |
| 220 to 221 °C | O=C(N[C@H](Cc1ccccc1)C(=O)O)OCc1ccc2oc(-c3ccccc3)nc2c1 |
| 96 to 97 °C | CC(=O)Nc1c([N+](=O)[O-])cc(F)c(F)c1F |
| 87 to 100 °C | CC1CCCNC(=O)C1 (stereo unspecified) |
| 227 °C | O=C(c1ccc([N+](=O)[O-])cc1)c1ccc2[nH]c(=O)cc(-c3cccc(Cl)c3)c2c1 |
| 114 to 115 °C | CCOC(=O)c1ccc(CSc2nnc(S)s2)cc1 |
| 147 to 149 °C | COC(=O)CCCC#Cc1cc(Cl)ccc1NS(=O)(=O)c1sc(NC(C)=O)nc1C |
| 187 to 189 °C | Cc1cc([N+](=O)[O-])ccc1S(=O)(=O)n1c(Br)nc(Br)c1C |
| 224 to 226 °C | CN1CCC[C@H]1c1ccc(Cl)cc1P(c1cccc2ccccc12)c1cccc2ccccc12 |
| 185 °C | CC(=O)c1ccc2c(c1)Sc1cc(C(C)=O)c(Cl)cc1N2C |
| 168 to 170 °C | CS(=O)(=O)c1ccc(-c2oc3ccccc3c(=O)c2-c2ccc(Br)cc2)cc1 |
| 105 to 107 °C | CC(C(=O)N1CCOCC1)N1CCN(c2ccccc2)CC1 (stereo unspecified) |
| 170 to 174 °C | Cc1nc(C)c(Cl)c(NCCCSc2ccnc(CNc3nc(C)nc(C)c3Cl)c2C)n1 |
| 96 °C | Cn1c2ccccc2c2cc(CO)ccc21 |
| 139 to 141 °C | CCN1C[C@@H](C(=O)O)N(C(=O)[C@H](C)CSC(=O)c2ccccc2)C1=O |
| 180 to 182 °C | CC12CCC3c4ccc(C(=O)O)cc4CCC3C1CCC2C(=O)c1ccco1 (stereo unspecified) |

| melting point | SMILES |
| --- | --- |
| 65 to 67 °C | CCCn1nnn(-c2cc(O)c(F)cc2F)c1=O |
| 99 to 101 °C | O=C(Nc1ccc(C(F)(F)F)cc1)Nc1nc(Cl)cc(Cl)n1 |
| 122 to 124 °C | CN1CS(=O)c2cccc(F)c21 (stereo unspecified) |
| 60 to 61 °C | CCOc1ccc(OCC)c(C=O)c1 |
| 124 to 127 °C | CCC(Oc1ccc2ccccc2c1)C(=O)OC1CC(O)C=C2C=CC(C)C(CCC3CC(O)CC(=O)O3)C21 (mixture of isomers) |
| 81 to 82 °C | COc1cc2c(cc1OCc1ccccc1)CCN(Cc1cccc(C)c1)C2 |
| 150 to 152 °C | O=C(NC(CN1CCC(=C2c3ccccc3CCc3ccccc32)CC1)C(=O)O)OCc1ccccc1 (stereo unspecified) |
| 244 to 246 °C | O=C(Nc1ccc(CN2C(=O)[C@H]3CCC[C@H]3N(C(=O)CN3C(=O)c4ccccc4C3=O)c3ccccc32)cc1)c1ccc(F)cc1 (relative stereo) |
| 174 °C | Cc1ccc(C(=O)O)nn1 |
| 45 to 50 °C | CC(C)OC(=O)c1cc(OC(C)C)ccc1[N+](=O)[O-] |
| 108 to 109 °C | C=C(C)CN(CCC12CC3CC(CC(C3)C1)C2)C(=O)NCCCc1ccncc1 |
| 156 to 158 °C | CC(C)(C)C(=O)COc1nn(CC=C(Cl)Cl)c(-c2ccc(S(C)(=O)=O)cc2)c1-c1ccc(F)cc1 |
| 234 to 236 °C | O=P(O)(O)Cc1ccc2ccccc2c1 |
| > 250 °C | CCOC(=O)c1cccc(-c2cc3c(Cl)ncnc3[nH]2)c1 |
| 166 to 168 °C | Nc1nc2ccccc2c2c1ncn2CCCCCC(=O)N1CCOCC1 |
| 180 to 183 °C | CSC1CCC2C3CCC4=CC(=O)C=CC4(C)C3C(=O)CC12C (stereo unspecified) |
| 204 to 206 °C | Nc1n[nH]c(-c2ccco2)n1 |
| 181 °C | NC(=O)N(O)CC#Cc1cccc(C2=N[C@H](c3ccc(F)cc3)CO2)c1 |
| 69 to 73 °C | O=C(c1ccc(Cl)cc1)c1c(Cl)cc(CBr)cc1Cl |
| 70.7 to 71.2 °C | CC(C)(C)[C@H](O)[C@@H](C#N)c1ccccc1 (racemic) |
| 151 to 153 °C | O=C1c2ccccc2C(=O)N1CCOc1ccc([N+](=O)[O-])cc1 |
| 156 to 158 °C | NC(=S)N(O)[C@H]1C[C@@H](c2ccc(F)cc2)C1 |
| 84 to 86 °C | CCCCCCCCNC(=O)N1CCC(S(=O)(=O)c2ccc(CCNC[C@H](O)COc3ccc4c(c3)OCO4)cc2)CC1 |
| 110 to 112 °C | CCOC(=O)Cc1ccc(-c2ccc3oc(C(=O)OCC)c(C)c3c2)cc1 |

| melting point | SMILES |
| --- | --- |
| 192 °C | N#Cc1cnn2c(C(F)(F)F)cc(-c3cccc(C(F)(F)F)c3)nc12 |
| 251 to 252 °C | Cc1ccc(-c2c(C(=O)Nc3nccs3)nc(-c3cccc4ccccc34)n2C)cc1 |
| 199 to 201 °C | Cc1ccc(-c2ccc3c(c2)C=C(C(=O)Nc2ccc(CN4CCC(Cc5ccccc5)CC4)cc2)CC3)cc1 |
| 125 to 126 °C | COc1cc(C)nc(-c2ccc(C=O)cc2)n1 |
| 145 to 146 °C | N#Cc1ccc(OCC(O)CN2CC3CC(C2)CN(C(=O)Oc2ccc(F)cc2)C3)cc1 (stereo unspecified) |
| 107 to 113 °C | CCC(NC(=NC#N)Nc1ccc(N(C)C)nc1)c1ccccc1 (stereo unspecified) |
| 144 to 146 °C | CCCCCCCCCCCCc1nnn(CC(=O)Nc2c(OC)cc(OC)cc2OC)n1 |
| 173 to 176 °C | O=c1oc(-c2ccc(C(F)(F)F)cc2)nn1Cc1cc(Cl)ccc1OP(=O)(O)O |
| 220 to 222 °C | CCOc1c(C=C2CCn3c2nc2cc(NC(=O)C(=O)O)ccc2c3=O)cccc1OC |
| 250 to 255 °C | c1cc2c3c(c1)nc(N1CCC(c4c[nH]cn4)CC1)n3CCC2 |
| 55 to 57 °C | CCC(=O)C1=CCC(c2c(C)c(C)c3c(c2Cl)CC(C)(CC)C3)CC1=O (stereo unspecified) |
| 152 °C | Cc1cc(N)ccc1N=Nc1ccc([N+](=O)[O-])cc1 |
| 99 °C | COC(=O)C=Cc1cc(C(=O)O)ccc1NC(=O)NC(=O)c1cc(F)c(F)cc1Cl |
| 209 to 210 °C | O=[N+]([O-])c1ccc2c(c1)C(n1ccccc1=S)=CC(CF)(CF)O2 |
| 122 °C | CCOc1c(C)cc(P(c2cc(C)c(OCC)c(C)c2)c2cc(C)c(OCC)c(C)c2)cc1C |
| 118 to 120 °C | CC(C)CC(NC(=O)OCc1ccccc1)C(=O)Nc1nncs1 (racemic) |
| 88 to 92 °C | CC#CCOc1ccc(OCCC(=O)O)cc1 |
| 75 °C | Cc1cnc(NC(=O)c2cc(Oc3cnc(C(=O)N(C)C)cn3)cc(O[C@@H](C)COC(F)F)c2)cn1 |
| 176 °C | CC(C)c1nnc2ccc(-c3ocnc3-c3c(F)cccc3F)cn12 |
| 150 to 151 °C | CCOP(=O)(OCC)c1nc(Nc2ccccc2)nc(N2CCCC2)n1 |
| 116 to 120 °C | CC(C)C[C@H](NC(=O)C1CCCCC1)C(=O)N[C@@H](C(C)C)[C@@H](O)c1c(-c2ccccc2)c1=O |
| 110 to 113 °C | O=C1C[C@H](O)C(=O)N1Cc1ccccc1 |
| 170 °C | COc1cc(OC)nc(NC(=O)NS(=O)(=O)c2ccccc2OC(F)(F)F)n1 |
| 108 °C | NC(=O)C1CCC(OCCCN2CCN(c3cccc4sccc34)CC2)CC1 (stereo unspecified) |
